{"source": "patent US20120213707A1", "about": "“Riboflavin Based Aerosol and Use as Placebo in Trials” (MPEX PHARMACEUTICALS, INC., priority 2009, published 2012)", "key": {"[1]": {"assay": "Toxicokinetics in dogs: plasma riboflavin 5′-phosphate and metabolite riboflavin after aerosolized doses for 28 days", "format": "in vivo, Dog (Canis familiaris)", "experimental": "(§1) Duration of treatment: 28 days. Test system: Dog (Canis familiaris); strain: Beagle.\nA series of 9 blood samples (approximately 2.0 mL each) were removed from each dog on each of Days 1 and 28 of the treatment period. For this purpose, each dog was bled by venipuncture and the samples were collected into tubes containing the anticoagulant, Sodium Heparin. Tubes were placed immediately on wet ice pending processing within 30 minutes of collection. On each occasion, samples were collected at pre-dose, immediately post exposure (IPD), 15 and 30 minutes, 1, 2, 4, 6 and 24 hours post exposure. Following collection, the samples were centrifuged (approximately 4° C.) and the resulting plasma was recovered and stored frozen at ITR (approximately −20° C.) in labeled tubes protected from light pending shipment (on dry ice)."}, "Beagle dogs": {"tested_on": "Beagle dogs", "assay": "28-day aerosolized liquid inhalation (oronasal) toxicity study in Beagle dogs", "format": "in vivo", "description": "The objective of the study was to determine the toxicity and toxicokinetic profile of the test article, Riboflavin 5′-phosphate, following inhalation (oronasal) administration to dogs for 28 consecutive days.\nTest article: riboflavin 5′-phosphate sodium salt hydrate; alternate identity: vitamin B2 phosphate; description: yellow crystals; potency: 74%. Vehicle article: saline (0.9% (w/v) NaCl for injection); description: clear colorless solution. Exposure method: inhalation by oronasal face mask exposure.\n(§2) The test (0.5 mg/mL, 2.0 mg/mL, 5.0 mg/mL) and/or vehicle control formulations (0 mg/mL) for each group were prepared fresh daily on each day by dissolving the test article in saline. All prepared test article formulations were protected from light and kept at room temperature (RT).\nas §1\nThe aerosol was produced by metering the flow of the test and control article formulations to 3 clinical nebulizers (Sidestream). The aerosol produced was discharged through a 40 mm diameter tube into a flow-past inhalation exposure system. The airflow rate through the exposure system was monitored and recorded manually during the aerosol generation. Airflow to the exposure system was controlled by the absolute volume of air supplying the aerosol generators using variable area flow meters. Control of the aerosol exhaust flow from the animal exposure system was achieved using an exhaust valve. The system provided a minimum of 6 L/min of aerosol to each animal exposure position and the inlet and outlet airflows were balanced to ensure that there was no dilution of the generated aerosol by air drawn from the environment. Any minor variations in flow were buffered by a balloon reservoir. An equal delivery of aerosol to each exposure position was achieved by employing a distribution network that was identical for each individual exposure position attached to the system.\nMortality checks were performed once daily during the acclimation and pre-treatment periods, and twice a day (am and pm) during the treatment period of the study.\nCage-side clinical signs (ill health, behavioral changes etc.) were recorded for all animals once daily during the acclimation period and twice daily (pre-exposure and post-exposure) during the treatment period except on detailed clinical examination days. A detailed clinical examination of each dog was performed (replacing a cage-side clinical sign observation in the morning) at least once pretreatment, one day prior to Day 1, weekly during the treatment period and before necropsy.\nBody weights were recorded for all animals at least once prior to group assignment, and approximately one week prior to initiation of treatment. Body weights were recorded for all animals one day prior to Day 1 and weekly during the treatment period, as well as terminally.\nIndividual daily food intake was recorded for all animals during the last week of the pretreatment period and throughout the treatment period.\nFunduscopic (indirect ophthalmoscopy) and biomicroscopic (slit lamp) examinations were performed for all animals, once during the pre-treatment period and during Week 4 of the treatment period.\nElectrocardiograms (limb leads I, II and III, and augmented leads aVR, aVL and aVF) were obtained for all dogs once during the pre-treatment period and at least 90 minutes (between 90-120 minutes) postexposure on Days 1 and during Week 4 of the treatment period. In addition, indirect blood pressure was measured on the same occasions as ECG using a tail cuff. The tracings were assessed for gross changes indicative of cardiac electrical dysfunction and the potential presence of abnormalities involving heart rate (lead II), sinus and atrioventricular rhythm or conductivity were determined. Heart rate, PR interval, QRS duration, QT and QTc intervals values were tabulated for incorporation into the study report. […]"}, "[2]": {"assay": "Stability of dosing formulations in saline", "format": "physicochemical", "details": "saline formulations 0.5-5.0 mg/mL, refrigerated at least 48 hours or room temperature on day of preparation", "experimental": "as §2\nAnalyses determined that all formulations were within acceptance criteria ranges (±10%). The formulation concentrations ranged between 94.4 and 106.4% of nominal concentrations and therefore considered acceptable.\nAnalyses determined that all formulations were within acceptance criteria ranges (±10%). The formulation concentrations ranged between 94.9 and 104.5% of nominal concentrations and were therefore considered acceptable. […]"}, "[3]": {"assay": "Aerosol particle size distribution, rat nose-only exposure system (7-Stage Mercer Cascade Impactor)", "format": "physicochemical", "description": "The aerosol was produced by metering the flow of the test article or vehicle formulations to 3 clinical nebulizers (Sidestream) connected to high velocity airstreams (10 L/min to each nebuliser). The aerosol produced was discharged through a 40 mm diameter tube into a flow-past inhalation exposure system. The airflow rate through the exposure system was monitored and recorded manually during the aerosol generation. Airflow to the exposure system was controlled by the absolute volume of air supplying the aerosol generators using variable area flow meters.\nDeterminations of aerosol concentration, particle size distribution, oxygen concentration, relative humidity and temperature was performed on test atmosphere samples collected from a representative port of the exposure system, with a collection sample flow-rate of 1 L/min. The sample flow rates were precisely controlled using variable area flow meters that were calibrated using a primary airflow calibrator before use. The absolute volume of each aerosol concentration sample was measured using a wet type gas meter.\nThe distribution of particle size in the generated aerosols for Groups 2 to 4 was measured weekly during the treatment period by collecting samples into a 7-Stage Mercer Cascade Impactor and the sample substrates obtained were transferred to the analytical chemistry laboratory of ITR Laboratories Canada Inc. for the chemical determination of the particle size of the aerosolized Riboflavin 5′-phosphate using a validated analytical method (ITR Study No. 40241). The distribution of particle size in the generated aerosols for Group 1 was estimated once weekly by gravimetric determination. The mass median aerodynamic diameter (MMAD) and the Geometric Standard Deviation (GSD) were calculated based on the results obtained from the impactor using a log-probit transformation."}, "[4]": {"details": "Group 2 Low Dose, 0.5 mg/mL formulation"}, "[5]": {"details": "Group 3 Mid Dose, 2.0 mg/mL formulation"}, "[6]": {"details": "Group 4 High Dose, 5.0 mg/mL formulation"}}, "data": [{"smiles": "Cc1cc2nc3c(=O)[nH]c(=O)nc-3n(C[C@H](O)[C@H](O)[C@H](O)COP(=O)(O)O)c2cc1C", "note": "[riboflavin 5′-phosphate]", "values": [{"measurement": "accumulation following repeated dosing", "setting": "[1]; 28 days", "result": "no accumulation"}, {"measurement": "gender related difference of riboflavin plasma exposure", "setting": "[1]; Day 1, single administration", "result": "no observed apparent gender related difference"}, {"measurement": "dose dependence of riboflavin plasma exposures (Cmax and AUC(0-T))", "setting": "[1]; both sexes, Day 1", "result": "increased as a function of the administered doses"}, {"measurement": "dose dependence of riboflavin plasma exposures (Cmax and AUC(0-T))", "setting": "[1]; both sexes, Day 28", "result": "increased as a function of the administered doses"}, {"measurement": "dose proportionality of riboflavin exposures (Cmax and AUC(0-T))", "setting": "[1]; both sexes, overall", "result": "appeared to be dose proportional"}, {"measurement": "gender difference in riboflavin exposure", "setting": "[1]; overall", "result": "no gender difference in riboflavin exposure"}, {"measurement": "riboflavin 5′-phosphate concentrations in plasma of treated animals", "setting": "[1]; single or repeated exposures", "result": "detected in only a single treated animal"}, {"measurement": "No Observed Effect Level (NOEL)", "setting": "Beagle dogs; Beagle dogs, oronasal inhalation up to 60 minutes/day, 28 consecutive days, high-dose group", "result": 1.341, "unit": "mg/kg/day"}, {"measurement": "tolerability", "setting": "Beagle dogs; beagle dogs, inhalation exposure 28 days", "result": "well tolerated"}, {"measurement": "blood pressure", "setting": "Beagle dogs; dog, in vivo", "result": "no changes in blood pressure that were considered related to treatment"}, {"measurement": "clinical chemistry", "setting": "Beagle dogs; dog, in vivo", "result": "no changes noted in clinical chemistry parameters that were considered to be treatment-related"}, {"measurement": "clinical signs", "setting": "Beagle dogs; dog, in vivo", "result": "no clinical signs related to treatment"}, {"measurement": "coagulation times", "setting": "Beagle dogs; dog, in vivo", "result": "unaffected by treatment"}, {"measurement": "electrocardiogram wave forms", "setting": "Beagle dogs; dog, in vivo", "result": "unaffected by treatment"}, {"measurement": "food consumption", "setting": "Beagle dogs; dog, in vivo", "result": "no changes noted in food consumption that were considered to be treatment-related"}, {"measurement": "hematology", "setting": "Beagle dogs; dog, in vivo", "result": "no changes noted in hematology parameters that were considered to be treatment-related"}, {"measurement": "macroscopic findings", "setting": "Beagle dogs; dog, in vivo", "result": "no macroscopic findings that were considered to be test article related"}, {"measurement": "microscopic findings", "setting": "Beagle dogs; dog, in vivo", "result": "no evidence of test article-related histopathological finding"}, {"measurement": "ophthalmology", "setting": "Beagle dogs; dog, in vivo", "result": "no ocular changes noted that were considered to be treatment-related"}, {"measurement": "organ weights", "setting": "Beagle dogs; dog, in vivo", "result": "slight increase in spleen weight"}, {"measurement": "respiratory parameters (respiratory rate, tidal volume and minute volume)", "setting": "Beagle dogs; dog, in vivo", "result": "no changes in respiratory parameters evaluated"}, {"measurement": "urinalysis", "setting": "Beagle dogs; dog, in vivo", "result": "no changes in any of the urinalysis parameters evaluated that were considered affected by treatment"}, {"measurement": "adverse effects", "setting": "Beagle dogs; dog, in vivo, 1.34 mg/kg/day", "result": "no adverse effects were observed"}, {"measurement": "mortality", "setting": "Beagle dogs; dogs, 28 days inhalation", "result": "no premature deaths"}, {"measurement": "formulation stability", "setting": "[2]; dog study", "result": "stable"}, {"measurement": "formulation stability", "setting": "[2]; rat study", "result": "stable"}, {"measurement": "% of particles <3.1 μm", "setting": "[3]; [4]", "result": 91.8, "unit": "%"}, {"measurement": "MMAD", "setting": "[3]; [4]", "result": 1.2, "unit": "μm"}, {"measurement": "% of particles <3.1 μm", "setting": "[3]; [5]", "result": 91.9, "unit": "%"}, {"measurement": "MMAD", "setting": "[3]; [5]", "result": 1.2, "unit": "μm"}, {"measurement": "% of particles <3.1 μm", "setting": "[3]; [6]", "result": 87.8, "unit": "%"}, {"measurement": "MMAD", "setting": "[3]; [6]", "result": 1.2, "unit": "μm"}]}]}
